# System: WM983-A melanoma cells
# Assay: Melanoma cell proliferation analysis (hemocytometer counting)
# Type: cell-based, human
# Description: To assess the possible impact of anle138b as well as anle138c on the different melanoma cell lines, WM983-A, WM983-B and SK-MEL-5, we treated them with increasing doses of either compound, dissolved in dimethyl sulfoxide (DMSO), and added to serum-free culture medium. […] We also observed that treatment with anle138b caused a more rapid morphological change than anle138c. To determine whether the effect of the two anle compounds was related to the amount of α-synuclein produced by the cells, we compared the proliferation of the (VGP) WM983-A high-level and the (RGP/VGP) WM1158 low-level α-synuclein-producing melanoma cells over a period of 96 hr, with replenishment of each anle compound at 48 hr (FIGS. 8A and B).
# To compare how rapidly anle138b affected the proliferation of melanoma cells, expressing α-synuclein at a high level, we treated the melanoma cell lines, WM983-A (VGP) and WM983-B (MGP), for 24, 48 or 72 hr with 10 μM of anle138b, with replenishment of the compound (10 μM) at 48 hr.
# 10 or 30 mM stock solutions of anle138b or anle138c were made in DMSO. […] Proliferation of melanoma cells that had received DMSO only, or were treated with anle138b was determined by counting the cells with a hemocytometer.
smiles,measurement,setting,value
"Brc1cccc(-c2cc(-c3ccc4c(c3)OCO4)n[nH]2)c1 [anle138b, 5-(3-Bromophenyl)-3-(3,4-methylenedioxyphenyl)-1H-pyrazole]",proliferation of residual cells after removal of compound,"removal of compound-containing medium at 96 hr, then serum-free medium",not able to proliferate again
same,proliferation,"single dose of 10 μM, 24 hr",inhibited the proliferation of both cell lines to a significant extent
